Like-named read-outs stand apart in the source and are kept apart here.

Assay [1] concerns blood cancer cell lines (e.g. HL-60, Jurkat, Raji, Ramos, Daudi, MOLT-4). As to the kind of experiment: Cell based assay, cell viability (CellTiter-Glo), blood cancer cell lines. The following applies: Homo sapiens. The protocol: Commercially available bladder cancer, prostate cancer, lung cancer, breast cancer, blood cancer, pancreatic cancer, colorectal cancer, brain cancer, neuroblastoma, melanoma, liver cancer, cervical carcinoma, ovarian cancer, renal cancer, and papilloma cell lines were each treated with trypsin-EDTA and cultured, followed by being seeded in each well of a 96 well plate. After 24 hours of treatment at constant temperature, the respective cells were treated with the candidate compound so that a final concentration became 0 to 2 μM. The treated cells were additionally cultured for 72 hours, and cell viability was measured by using an ATP detection method (CellTiter-Glo® Luminescent Cell Viability Assay, Promega).
(Cellular ATP, detected with luciferase, serves as a proxy for viable cell number.)

Assay [2] has as its system cervical carcinoma cell lines. Nature of the assay: Cell based assay, cell viability (CellTiter-Glo), cervical carcinoma cell lines. As to conditions: Homo sapiens; HeLa cells. The protocol: Commercially available bladder cancer, prostate cancer, lung cancer, breast cancer, blood cancer, pancreatic cancer, colorectal cancer, brain cancer, neuroblastoma, melanoma, liver cancer, cervical carcinoma, ovarian cancer, renal cancer, and papilloma cell lines were each treated with trypsin-EDTA and cultured, followed by being seeded in each well of a 96 well plate. […] The treated cells were additionally cultured for 72 hours, and cell viability was measured by using an ATP detection method (CellTiter-Glo® Luminescent Cell Viability Assay, Promega).

The mark [3] stands for this setting: MV4-11, blood cancer cell line MV-4-11, 72 hours, read-out: IC50, MV-4-11.
The mark [4] stands for this setting: blood cancer cell line Daudi, 72 hours, read-out: IC50, Daudi.
Where [5] appears, read: blood cancer cell line HL-60, 72 hours, read-out: IC50, HL-60.
[6] abbreviates: blood cancer cell line Jurkat, 72 hours, read-out: IC50, Jurkat.
Setting [7] is: blood cancer cell line MOLT-4, 72 hours, read-out: IC50, MOLT-4.
Setting [8] is: blood cancer cell line Raji, 72 hours, read-out: IC50, Raji.
[9] abbreviates: blood cancer cell line Ramos (RA 1), 72 hours, read-out: IC50, Ramos (RA 1).
[10] abbreviates: blood cancer cell line U-937, 72 hours, read-out: IC50, U-937.

Regarding `CC(=O)c1c([S+](C)[O-])[nH]c2c(Br)ccc(Cl)c2c1=O` (stereo not drawn) [Compound 1, 3-acetyl-8-bromo-5-chloro-2-(methylsulfinyl)quinolin-4(1H)-one], the IC50 (commonly the concentration at which inhibition is half-maximal) in assay [1] (setting [3]) is 1.39 µM; in assay [1] (setting [4]) it was more than 2 µM; in assay [1] (setting [5]), 1.72 µM; in assay [1] (setting [6]), more than 2 µM; in assay [1] (setting [7]) it was 1.85 µM; in assay [1] (setting [8]), more than 2 µM. Moreover, the figures for the IC50 in assay [1] (setting [9]), in assay [1] (setting [10]) and in assay [2] were more than 2 µM, more than 2 µM and more than 10 µM, respectively.

For the molecule `CSc1[nH]c2c(Br)ccc(Cl)c2c(=O)c1C(C)=O` [Compound 2, 3-acetyl-8-bromo-5-chloro-2-(methylthio)quinolin-4(1H)-one], the IC50 in assay [1] (setting [3]), in assay [1] (setting [4]), in assay [1] (setting [5]), in assay [1] (setting [6]), in assay [1] (setting [7]) and in assay [1] (setting [8]) was more than 2 µM each time. In addition, the IC50 in assay [1] (setting [9]) is more than 2 µM; in assay [1] (setting [10]) it was more than 2 µM; in assay [2], more than 10 µM.

As for `CC(=O)c1c(SCc2ccccc2)[nH]c2c(Br)ccc(Cl)c2c1=O` [Compound 3, 3-acetyl-2-(benzylthio)-8-bromo-5-chloroquinolin-4(1H)-one], the IC50 in assay [1] (setting [3]), in assay [1] (setting [4]), in assay [1] (setting [5]), in assay [1] (setting [6]), in assay [1] (setting [7]) and in assay [1] (setting [8]) was more than 2 µM throughout. Besides, the IC50 was more than 2 µM in assay [1] (setting [9]), more than 2 µM in assay [1] (setting [10]) and more than 10 µM in assay [2].

For `CC(=O)c1c([S+]([O-])Cc2ccccc2)nc2c(Br)ccc(Cl)c2c1O` (stereo not drawn) [Compound 4], the IC50 is 1.61 µM in assay [1] (setting [3]); more than 2 µM in assay [1] (setting [4]); 1.98 µM in assay [1] (setting [5]); 1.07 µM in assay [1] (setting [6]); 1.37 µM in assay [1] (setting [7]); 1.15 µM in assay [1] (setting [8]). The IC50 in assay [1] (setting [9]) is 1.76 µM; in assay [1] (setting [10]), 1.24 µM; in assay [2], more than 10 µM.

Consider `CSc1c(C(C)=O)c(=O)c2c(Cl)ccc(Br)c2n1C` [Compound 5, 3-acetyl-8-bromo-5-chloro-1-methyl-2-(methylthio)quinolin-4(1H)-one], for which the IC50 in assay [1] (setting [3]), in assay [1] (setting [4]), in assay [1] (setting [5]), in assay [1] (setting [6]), in assay [1] (setting [7]) and in assay [1] (setting [8]) was more than 2 µM throughout. Further, the IC50 is more than 2 µM in assay [1] (setting [9]), more than 2 µM in assay [1] (setting [10]) and more than 10 µM in assay [2].

On to `CC(=O)c1c([S+](C)[O-])[nH]c2c(Cl)ccc(Cl)c2c1=O` (stereo not drawn) [Compound 6, 3-acetyl-5,8-dichloro-2-(methylsulfinyl)quinolin-4(1H)-one], for which the IC50 in assay [1] (setting [3]) is 1.26 µM; in assay [1] (setting [4]), more than 2 µM; in assay [1] (setting [5]), 1.65 µM; in assay [1] (setting [6]) it was more than 2 µM; in assay [1] (setting [7]), 1.69 µM; in assay [1] (setting [8]) it was more than 2 µM. Moreover, the IC50 was more than 2 µM in assay [1] (setting [9]), more than 2 µM in assay [1] (setting [10]) and more than 10 µM in assay [2].

As for `CSc1c(C(C)=O)c(=O)c2cc(F)ccc2n1C` [Compound 7, 3-acetyl-6-fluoro-1-methyl-2-(methylthio)quinolin-4(1H)-one], the IC50 in assay [1] (setting [3]), in assay [1] (setting [4]), in assay [1] (setting [5]), in assay [1] (setting [6]), in assay [1] (setting [7]) and in assay [1] (setting [8]) was more than 2 µM in each case. For the same molecule, the IC50 was more than 2 µM in assay [1] (setting [9]), more than 2 µM in assay [1] (setting [10]) and more than 10 µM in assay [2].

On to `CSc1[nH]c2ccc(F)cc2c(=O)c1C(C)=O` [Compound 8, 1-(6-fluoro-4-hydroxy-2-(methylthio)quinolin-3-yl)ethan-1-one], for which the IC50 in assay [1] (setting [3]), in assay [1] (setting [4]), in assay [1] (setting [5]), in assay [1] (setting [6]), in assay [1] (setting [7]) and in assay [1] (setting [8]) was more than 2 µM each time. Also, the results for the IC50 in assay [1] (setting [9]), in assay [1] (setting [10]) and in assay [2] were more than 2 µM, more than 2 µM and more than 10 µM, respectively.

As to `CC(=O)c1c([S+](C)[O-])n(C(=O)c2ccc(Br)cc2)c2c(Br)ccc(Cl)c2c1=O` (stereo not drawn) [Compound 9, 3-acetyl-8-bromo-1-(4-bromobenzoyl)-5-chloro-2-(methylsulfinyl)quinolin-4(1H)-one], the IC50 is 1.09 µM in assay [1] (setting [3]); 1.99 µM in assay [1] (setting [4]); 1.2 µM in assay [1] (setting [5]); 1.05 µM in assay [1] (setting [6]); 1.25 µM in assay [1] (setting [7]); 1.14 µM in assay [1] (setting [8]). Moreover, the IC50 is 1.55 µM in assay [1] (setting [9]), 1.06 µM in assay [1] (setting [10]) and more than 10 µM in assay [2].

For the molecule `CC(=O)c1c(SCc2ccc(Cl)cc2)[nH]c2c(Br)ccc(Cl)c2c1=O` [Compound 10, 3-acetyl-8-bromo-5-chloro-2-((4-chlorobenzyl)thio)quinolin-4(1H)-one], the IC50 in assay [1] (setting [3]), in assay [1] (setting [4]), in assay [1] (setting [5]), in assay [1] (setting [6]), in assay [1] (setting [7]) and in assay [1] (setting [8]) was more than 2 µM in each case. In addition, the values for the IC50 in assay [1] (setting [9]), in assay [1] (setting [10]) and in assay [2] were more than 2 µM, more than 2 µM and more than 10 µM, respectively.

Turning to `CC(=O)c1c([S+]([O-])Cc2ccc(Cl)cc2)[nH]c2c(Br)ccc(Cl)c2c1=O` (stereo not drawn) [Compound 11, 3-acetyl-8-bromo-5-chloro-2-((4-chlorobenzyl)sulfinyl)quinolin-4(1H)-one], the IC50 in assay [1] (setting [3]), in assay [1] (setting [4]), in assay [1] (setting [5]), in assay [1] (setting [6]), in assay [1] (setting [7]) and in assay [1] (setting [8]) was more than 2 µM in each case. Further, the figures for the IC50 in assay [1] (setting [9]), in assay [1] (setting [10]) and in assay [2] were more than 2 µM, more than 2 µM and more than 10 µM, respectively.

As to `CC(=O)c1c(Sc2ccccc2)[nH]c2c(Br)ccc(Cl)c2c1=O` [Compound 12, 3-acetyl-8-bromo-5-chloro-2-(phenylthio)quinolin-4(1H)-one], the IC50 in assay [1] (setting [3]), in assay [1] (setting [4]), in assay [1] (setting [5]), in assay [1] (setting [6]), in assay [1] (setting [7]) and in assay [1] (setting [8]) was more than 2 µM each time. Besides, the IC50 in assay [1] (setting [9]) was more than 2 µM; in assay [1] (setting [10]), more than 2 µM; in assay [2], more than 10 µM.

For the molecule `CC(=O)c1c([S+]([O-])c2ccccc2)[nH]c2c(Br)ccc(Cl)c2c1=O` (stereo not drawn) [Compound 13, 3-acetyl-8-bromo-5-chloro-2-(phenylsulfinyl)quinolin-4(1H)-one], the IC50 in assay [1] (setting [3]), in assay [1] (setting [4]), in assay [1] (setting [5]), in assay [1] (setting [6]), in assay [1] (setting [7]) and in assay [1] (setting [8]) was more than 2 µM throughout. Besides, the IC50 in assay [1] (setting [9]) was more than 2 µM; in assay [1] (setting [10]) it was more than 2 µM; in assay [2], more than 10 µM.

Turning to `COc1ccccc1Sc1[nH]c2c(Br)ccc(Cl)c2c(=O)c1C(C)=O` [Compound 14, 3-acetyl-8-bromo-5-chloro-2-((2-methoxyphenyl)thio)quinolin-4(1H)-one], the IC50 in assay [1] (setting [3]), in assay [1] (setting [4]), in assay [1] (setting [5]), in assay [1] (setting [6]), in assay [1] (setting [7]) and in assay [1] (setting [8]) was more than 2 µM each time. For the same molecule, the IC50 in assay [1] (setting [9]) was more than 2 µM; in assay [1] (setting [10]), more than 2 µM; in assay [2], more than 10 µM.

With `COc1ccccc1[S+]([O-])c1[nH]c2c(Br)ccc(Cl)c2c(=O)c1C(C)=O` (stereo not drawn) [Compound 15, 3-acetyl-8-bromo-5-chloro-2-((2-methoxyphenyl)sulfinyl)quinolin-4(1H)-one], the IC50 in assay [1] (setting [3]), in assay [1] (setting [4]), in assay [1] (setting [5]), in assay [1] (setting [6]), in assay [1] (setting [7]) and in assay [1] (setting [8]) was more than 2 µM each time. Further, the figures for the IC50 in assay [1] (setting [9]), in assay [1] (setting [10]) and in assay [2] were more than 2 µM, more than 2 µM and more than 10 µM, respectively.

For the molecule `CC(=O)c1c(Sc2ccc(Br)cc2)[nH]c2c(Br)ccc(Cl)c2c1=O` [Compound 16, 3-acetyl-8-bromo-2-((4-bromophenyl)thio)-5-chloroquinolin-4(1H)-one], the IC50 in assay [1] (setting [3]), in assay [1] (setting [4]), in assay [1] (setting [5]), in assay [1] (setting [6]), in assay [1] (setting [7]) and in assay [1] (setting [8]) was more than 2 µM throughout. Moreover, the figures for the IC50 in assay [1] (setting [9]), in assay [1] (setting [10]) and in assay [2] were more than 2 µM, more than 2 µM and more than 10 µM, respectively.

The values above are taken from patent US11464770B2, “Anticancer pharmaceutical composition” (NATIONAL CANCER CENTER, priority 2016, dated 2022).
